Test results: patent publication US20050170989A1, “Fluorine-containing water-soluble nonionic surface-active compounds, use thereof and process for preparation of the compounds” (DAIKIN INDUSTRIES, LTD., priority 2002, published 2005)

Experiments:
Type in all cases: physicochemical
[1] = Dynamic surface tension by the maximum bubble pressure method; settings: 0.5 wt. % aqueous solution, 25° C., at 100 milliseconds
Description: For the measurement of dynamic surface tension, each compound was dissolved in water, heated if necessary, to prepare 80 g of 0.5 wt. % aqueous solutions. The dynamic surface tension thereof was measured at 25° C. according to the maximum bubble pressure method. The obtained value was that measured at 100 milliseconds. The measurement instrument used was a “KRUSS BUBBLE PRESSURE TENSIOMETER-BP2”.

[2] = Static surface tension by the Wilhelmy method (plate method); settings: 0.1 wt. % aqueous solution, left 1 day, 25° C.
Description: For the measurement of surface tension, a uniform liquid was used that was obtained by heating each compound at about 60° C. The compounds were each dissolved in water to prepare 10 g of 0.1 wt. % aqueous solutions. After the aqueous solutions were left to stand for 1 day, the static surface tension thereof was measured at 25° C. according to the Wilhelmy method (plate method). The measurement instrument used was a “SURFACE TENSIOMETER CBVP-A3” (product of Kyowa Interface Science Co., Ltd.).

[3] = Water solubility evaluation, observed with the naked eye; settings: 25° C.; for Water Solubility 1%: 1 wt. % aqueous mixture; for Water Solubility 5%: 5 wt. % aqueous mixture; for Water Solubility 50%: 50 wt. % aqueous mixture
Description: For the evaluation of water solubility, a uniform liquid was used that was obtained by heating each compound at about 60° C. 5g aqueous mixtures were prepared at predetermined concentrations (1 wt. %, 5 wt. % and 50 wt. %) in capped sample bottles.

Substance | Dynamic Surface Tension 0.50% [1] [mN/m] | Static Surface Tension 0.10% [2] [mN/m] | Water Solubility 1% [3] | Water Solubility 5% [3] | Water Solubility 50% [3]
C4F9—CH2CH(OH)CH2O—(CH2CH2O)20—C18H37 [Example 4] | 36 | 24.1 | Dissolved | Dissolved | Uniform gel
C4F9—CH2CH(OH)CH2O—(CH2CH2O)21—C12H25 [Example 5] | 30 | 21.9 | Dissolved | Dissolved | Dissolved
C4F9—CH2CH(OH)CH2O—(CH2CH2O)23—C16H33 [Example 1] | 34 | 24.2 | Dissolved | Dissolved | Dissolved
C4F9—CH2CH(OH)CH2O—(CH2CH2O)23—CH2CH(OH)CH2—C4F9 [Example 7] | 32 | 18.4 | Dissolved | Dissolved | Dissolved
C4F9—CH2CH(OH)CH2O—(CH2CH2O)25—C12H25 [Example 6] | 35 | 23.1 | Dissolved | Dissolved | Dissolved
C4F9—CH2CH(OH)CH2O—(CH2CH2O)25—C16H33 [Example 2] | 34 | 23.8 | Dissolved | Dissolved | Dissolved
C4F9—CH2CH(OH)CH2O—(CH2CH2O)35—CH2CH(OH)CH2—C4F9 [Example 8] | 32 | 18.6 | Dissolved | Dissolved | Dissolved
C4F9—CH2CH(OH)CH2O—(CH2CH2O)40—C16H33 [Example 3] | 45 | 30.5 | Dissolved | Dissolved | Dissolved
C4F9—CH2CH(OH)CH2O—(CH2CH2O)45—CH2CH(OH)CH2—C4F9 [Example 9] | 34 | 19.1 | Dissolved | Dissolved | Dissolved
C16H33O—(CH2CH2O)15—H [Comparative Example 8, reference compound] | 59 | 37.5 | Dissolved | Suspended | Solid
C18H33COO—(CH2CH2O)23—COC18H33 [Comparative Example 9, reference compound] | 61 | 34.8 | Dissolved | Dissolved | Uniform gel
